# Source: patent US9271946B2, “Use of a RAR antagonist or inverse agonist for the treatment of chemotherapy and/or radiation therapy side effects” (IO Therapeutics, Inc., priority 2006, dated 2016)
# Assays:
# [1] = molecular target: T1, RARα (Homo sapiens, UniProt P10276); test: binding to RARα
# T1 sequence (P10276 1-462): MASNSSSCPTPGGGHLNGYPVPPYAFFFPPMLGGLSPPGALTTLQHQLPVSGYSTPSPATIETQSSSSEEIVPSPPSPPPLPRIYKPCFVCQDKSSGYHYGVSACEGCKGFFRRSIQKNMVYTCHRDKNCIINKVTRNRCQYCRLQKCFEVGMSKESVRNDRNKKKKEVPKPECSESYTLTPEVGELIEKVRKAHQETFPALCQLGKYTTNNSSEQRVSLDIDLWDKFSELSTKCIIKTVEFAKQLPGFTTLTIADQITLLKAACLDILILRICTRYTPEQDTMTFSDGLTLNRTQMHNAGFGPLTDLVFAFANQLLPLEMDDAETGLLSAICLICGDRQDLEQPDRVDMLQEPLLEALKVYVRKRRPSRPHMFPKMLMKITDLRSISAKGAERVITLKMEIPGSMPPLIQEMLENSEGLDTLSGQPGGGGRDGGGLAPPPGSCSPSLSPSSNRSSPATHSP
# [2] = test system: RAR; test: transactivation assays; format: cell-based
# Excerpt: An assay that can be used to determine the agonist activity in the RARα, RARβ and RARγ receptor subtypes is described in Feigner, P. L., and Holm, M., FOCUS, 11:2, 21+ (1989) and U.S. Pat. Nos. 5,455,265 and 7,166,726, all of which are incorporated herein by reference in their entirety.
# [3] = test system: CPM-induced leukopenic male BDF1 mice; test: cyclophosphamide-induced mouse model of leukopenia, blood cell recovery (Example 1); format: in vivo; details: for lymphocyte counts: mean±SEM
# Excerpt: Mice purchased from Charles River Laboratories (Wilmington, Mass.) were housed individually in micro-isolater cages in a 12-hour light/dark cycle. They were housed under pathogen-free conditions, and received a normal standard diet and water ad libitum. They were acclimated for one week at the Association for Assessment and Accreditation of Laboratory Animal Care (AAALAC) accredited animal facility (Allergan Inc., Irvine, Calif.) prior to experiments. Study designs were approved by the Institutional Animal Care and Use Committee. Body weights were monitored throughout each study. Weight of the mice was in the range of 22-27 g at the day of treatment initiation. The mice were healthy, not previously used in other experimental procedures.
# Leukopenia was induced in male BDF1 mice (C57Bl×DBA2, 7.5-12 weeks) by an intra-peritoneal (i.p.) injection of 200 mg/kg Cyclophosphamide (CPM, Sigma-Aldrich, Saint Louis, Mo.) in 0.2 ml saline. The effect of VTP 194310 on leukocyte recovery was evaluated by oral gavage of animals with 1 mg/kg of VTP 194310 as indicated in the results section. VTP 194310 (dissolved in DMSO) was diluted through peanut oil as the vehicle (dosed at 5 ml/kg). Control mice were given DMSO and vehicle alone. As a positive control, granulocytopoiesis was stimulated in CPM-treated mice by a single sub-cutaneous injection of 10 μg/kg pegylated recombinant methionyl human granulocyte colony-stimulating factor (PEG-r-metHuG-CSF) (Neulasta, Pegfilgrastim; Amgen, Thousand Oaks, Calif.) on day 2. Three separate experiments were performed.
# Peripheral blood (60 μl) was collected under anaesthesia from the retroorbital sinus of the mice with heparinized capillary tubes and transferred to EDTA-coated microtainer tubes (Becton Dickinson, Franklin Lakes, N.J.). White cell, neutrophil, and lymphocyte counts were obtained for at least three mice per group by diluting the blood 1:4 with PBS containing 5% bovine serum albumin (Fraction V; Sigma, Saint Louis, Mo.), and by using an Advia 120 Hematology System (Bayer HealthCare Diagnostics Division, Tarrytown, N.Y.).
# [4] = test system: S. aureus 29213 infection in leukopenic female BDF1 mice; test: protective effect against S. aureus infection in leukopenic mice (Example 3); format: in vivo, mouse
# Procedure: S. aureus 29213 obtained from American Type Culture Collection (ATCC) (Rockville, Md.) was used to induce infections in leukopenic female BDF1 mice (20-22 g). S. aureus were cultured at 37° C. in Tryptic Soy broth until the mid-logarithmic phase of growth (optical density at 600 nm=0.3), harvested, and washed with PBS. The number of bacteria was enumerated by serial dilution with PBS, plating onto blood agar, and counting colony-forming units (CFU) 48 hours after incubation at 37° C. The suspension was adjusted to […].
# Mice were rendered leukopenic by i.p. injection of CPM at 200 mg/kg. A lethal dose (LD) of S. aureus was determined by intravenous injections of 1×10^3 to 1×10^8 CFU to groups of 10 mice 4 days after CPM treatment. 10-day survivors were enumerated, and the LD95 of S. aureus was calculated by Probit analysis. Treatment with VTP 194310 (at 1 mg/kg) was started one day before CPM and continued for 3 more days. Four days after CPM, the animals were infected intravenously with 4.1 and 2.5×10^6 CFU of S. aureus in 200 μl of PBS. Surviving animals were recorded daily for 14 days after the challenge. […] All experiments were performed in compliance with relevant laws and institutional guidelines, and were approved by the Animal Care and Use Committee.
# [5] = test system: 5-FU-induced neutropenic male BDF1 mice; test: monotherapy and combination therapy on neutrophil recovery in 5-FU-induced neutropenic mice (Example 5); format: in vivo, mouse
# Procedure: VTP194310 DMSO Stock solution was made by weighing out VTP194310 and dissolving it in DMSO (25 mg/1.33 ml DMSO).
# The Vehicle solution was made by mixing 39.2 ml Corn Oil+0.8 ml DMSO.
# The 3.0 mg/kg VTP194310 solution was made by mixing 39.2 ml Corn Oil+0.8 ml VTP 194310 DMSO Stock solution.
# The 150 mg/kg 5-FU solution was made by weighing out 187.5 mg 5-FU and mixing it with 10 g saline.
# The 10 μg/kg PEG-G-CSF solution was made by diluting 6 mg/ml stock with PBS.
# Male BDF1 mice (C57Bl×DBA2), 9 weeks old, DOB: 26 Jun. 2006) were used in this experiment.
# Each group of mice were treated with 150 mg/kg 5-FU intravenously on Day 0, vehicle or VTP194310 orally by gavage at 3 mg/kg/day on Days 2 to 4, and/or subcutaneously with PEG-G-CSF at 10 μg/kg on Days 5, 6, or 7 according to the regimens listed in the table. The mean numbers of total white blood cells (WBC), neutrophils, lymphocytes, red blood cells (RBC) and platelets and standard error (SE) of data obtained for each treated group are shown in FIG. 6.
# [6] = 1 mg/kg oral at days −4 to −1 and at days 0 to 3
# [7] = day 8, 1 mg/kg oral at days −4 to −1 and at days 0 to 3, CPM day 0
smiles,measurement,setting,value
"CCc1ccc(C2=CC(C)(C)Sc3ccc(C#Cc4ccc(C(=O)O)cc4)cc32)cc1 [VTP 194310, 4-[[4-(4-ethylphenyl)-2,2-dimethyl-(2H)-thiochromen-6-yl]-ethynyl]-benzoic acid]",Ki,[1],3 nM
same,activity in transactivation assays,[2]; agonist activity,no activity
same,gene transcriptional activity induced by ATRA and other RAR agonists,[2]; antagonism,blocks the gene transcriptional activity
same,numbers of leukocytes and neutrophils generated,[3]; 1 mg/kg oral at days 4 to 7,"improved the numbers of leukocytes and neutrophils generated, but to an extent that was considerably less"
same,earliest day with significant differences in recovery,[3]; [6],5 day post-CPM
same,rise of leukocyte and neutrophil counts compared to control leukopenic mice,[3]; [6],rose quicker
same,leukocyte recovery,"[3]; CPM 200 mg/kg i.p., 1 mg/kg oral gavage",improved leukocyte recovery
same,leukocyte counts in blood versus mice treated with CPM alone,[3]; [7],~3 fold
same,neutrophil counts in blood versus mice treated with CPM alone,[3]; [7],~3 fold
same,lymphocyte counts,"[3]; day 8, dosed days 0 to 3",4.49±0.52 ×10^3/μl
same,lymphocyte counts,"[3]; day 8, dosed days −4 to −1",4.53±0.39 ×10^3/μl
same,number of lymphocytes in blood compared to control leukopenic mice and Peg-r-metHuG-CSF mice,[3]; dosed days −4 to −1 and days 0 to 3,increased number of lymphocytes
same,protective effect against S. aureus infection compared to controls,"[4]; Logrank p=0.0031 (4.1×10^6 CFU), p<0.0001 (2.5×10^6 CFU)",very significant protective effect
same,mice alive,"[4]; day 10, each of the doses of S. aureus (4.1 and 2.5×10^6 CFU), 1 mg/kg days −1 to 2",83%
same,mice alive,"[4]; day 14, 2.5×10^6 CFU S. aureus",67%
same,mice alive,"[4]; day 14, higher dose of bacteria (4.1×10^6 CFU)",42%
same,effectiveness in enhancing neutrophil recovery compared to PEG-G-CSF,"[5]; 3 mg/kg/day Days 2 to 4 vs PEG-G-CSF 10 μg/kg Days 5, 6, or 7",more effective than PEG-G-CSF
same,recovery of neutrophils relative to control,"[5]; monotherapy, 5-FU 150 mg/kg i.v. Day 0, VTP 194310 3 mg/kg/day oral Days 2 to 4, PEG-G-CSF 10 μg/kg s.c. Day 5, 6, or 7",improved the recovery of neutrophils
